Tested on: GM3
Assay: GM3 Elisa assay
Type: cell-based
Conditions: 48 h, Table 1; B16-FO cells, 2 days incubation; read-out: IC50_uM_Mean
Description: B16-FO cells from ATCC (American Tissue Culture Collection) were grown in DMEM media (ATCC) with 10% Fetal Bovine Serum (Hyclone) and Pen/Step/Glutamine (Biowhittaker). 4000 cells per well were plated on collagen coated plates (BD) and allowed to attach for 6 hours in an incubator (37 degrees, 5% CO2). After 6 hours the compounds and controls were added to the wells, the plates mixed and returned to the incubator for 2 days. Day of assay the cells were fixed for 20 minutes with 1% formaldehyde and then washed with Tris Buffered Saline (TBS) 3 times, 150 μl of TBS was left in the wells and 50 μl of goat serum (Invitrogen) was added, the plates mixed and incubated for 1 hour at room temperature. The plates were flicked and the cells incubated with the monoclonal Antibody to GM3 (NeuAc) (Cosmo) for 45 minutes as room temperature. The plates were then washed 3 times with TBS, leaving 150 μl of TBS in the wells and Peroxidase AffinPure F (ab′) 2 frag Gt Anti-mouse IgM, μ Chain Specific (Jackson Immuno Research) was added in 50 μl, the plates mixed and incubated for 45 minutes at room temperature. The plates were washed 3 times with TBS, flicked and blotted and 100 μl of Quantablu (Pierce) was added to the wells and incubated for 1 hour then read on a Fluorometer at Ex 325 and Em 420. The data was then analyzed using standard programs.

| SMILES | IC50 [nM] |
| --- | --- |
| O=C(N[C@H](CN1CCCC1)[C@H](O)c1ccc2c(c1)OCCO2)c1cc2ccccc2s1 [Compound 5, N-((1R,2R)-1-(2,3-dihydrobenzo[β][1,4]dioxin-6-yl)-1-hydroxy-3-(pyrrolidin-1-yl)propan-2-yl)benzo[b]thiophene-2-carboxamide] | 100 to 1000 |
| O=C(NCc1ccccc1)N[C@H](CN1CCCC1)[C@H](O)c1ccc2c(c1)OCCO2 [Compound 6, 1-benzyl-3-((1R,2R)-1-(2,3-dihydrobenzo[β][1,4]dioxin-6-yl)-1-hydroxy-3-(pyrrolidin-1-yl)propan-2-yl)urea] | 100 to 1000 |
| CCCCCCCCCCCCNC(=O)N[C@H](CN1CCCC1)[C@H](O)c1ccc2c(c1)OCCO2 [Compound 7, 1-((1R,2R)-1-(2,3-dihydrobenzo[β][1,4]dioxin-6-yl)-1-hydroxy-3-(pyrrolidin-1-yl)propan-2-yl)-3-dodecylurea] | ≤ 100 |
| C[C@H](NC(=O)N[C@H](CN1CCCC1)[C@H](O)c1ccc2c(c1)OCCO2)c1ccccc1 [Compound 10, 1-((1R,2R)-1-(2,3-dihydrobenzo[β][1,4]dioxin-6-yl)-1-hydroxy-3-(pyrrolidin-1-yl)propan-2-yl)-3-((S)-1-phenylethyl)urea] | 100 to 1000 |
| O=C(CSc1ccccc1)N[C@H](CN1CCCC1)[C@H](O)c1ccc2c(c1)OCCO2 [Compound 11, N-((1R,2R)-1-(2,3-dihydrobenzo[β][1,4]dioxin-6-yl)-1-hydroxy-3-(pyrrolidin-1-yl)propan-2-yl)-2-(phenylthio)acetamide] | ≤ 100 |
| O=C(N[C@H](CN1CCCC1)[C@H](O)c1ccc2c(c1)OCCO2)c1ccc(-c2ccccc2)cc1 [Compound 12, N-((1R,2R)-1-(2,3-dihydrobenzo[β][1,4]dioxin-6-yl)-1-hydroxy-3-(pyrrolidin-1-yl)propan-2-yl)biphenyl-4-carboxamide] | 100 to 1000 |
| O=C(NCc1ccc(F)cc1)N[C@H](CN1CCCC1)[C@H](O)c1ccc2c(c1)OCCO2 [Compound 17, 1-((1R,2R)-1-(2,3-dihydrobenzo[β][1,4]dioxin-6-yl)-1-hydroxy-3-(pyrrolidin-1-yl)propan-2-yl)-3-(4-fluorobenzyl)urea] | ≤ 100 |
| O=C(N[C@H](CN1CCCC1)[C@H](O)c1ccc2c(c1)OCCO2)c1ccc2sccc2c1 [Compound 19, N-((1R,2R)-1-(2,3-dihydrobenzo[β][1,4]dioxin-6-yl)-1-hydroxy-3-(pyrrolidin-1-yl)propan-2-yl)benzo[b]thiophene-5-carboxamide] | 100 to 1000 |
| O=C(Cc1ccc(-c2ccccc2)cc1)N[C@H](CN1CCCC1)[C@H](O)c1ccc2c(c1)OCCO2 [Compound 23, 2-(biphenyl-4-yl)-N-((R,2R)-1-(2,3-dihydrobenzo[β][1,4]dioxin-6-yl)-1-hydroxy-3-(pyrrolidin-1-yl)propan-2-yl)acetamide] | ≤ 100 |
| O=C(Cc1ccc(Oc2ccccc2)cc1)N[C@H](CN1CCCC1)[C@H](O)c1ccc2c(c1)OCCO2 [Compound 24, N-((1R,2R)-1-(2,3-dihydrobenzo[β][1,4]dioxin-6-yl)-1-hydroxy-3-(pyrrolidin-1-yl)propan-2-yl)-2-(4-phenoxyphenyl)acetamide] | 100 to 1000 |

Results, then the compound that gave them:

| IC50 [nM] | SMILES |
| --- | --- |
| 100 to 1000 | O=C(N[C@H](CN1CCCC1)[C@H](O)c1ccc2c(c1)OCCO2)[C@@H](O)Cc1ccccc1 [Compound 25, (S)—N-((1R,2R)-1-(2,3-dihydrobenzo[β][1,4]dioxin-6-yl)-1-hydroxy-3-(pyrrolidin-1-yl)propan-2-yl)-2-hydroxy-3-phenylpropanamide] |
| ≤ 100 | O=C(CCOc1ccccc1)N[C@H](CN1CCCC1)[C@H](O)c1ccc2c(c1)OCCO2 [Compound 27, N-((1R,2R)-1-(2,3-dihydrobenzo[β][1,4]dioxin-6-yl)-1-hydroxy-3-(pyrrolidin-1-yl)propan-2-yl)-3-phenoxypropanamide] |
| 100 to 1000 | O=C(N[C@H](CN1CCCC1)[C@H](O)c1ccc2c(c1)OCCO2)C(=O)c1ccccc1 [Compound 31, N-((1R,2R)-1-(2,3-dihydrobenzoall [1,4]dioxin-6-yl)-1-hydroxy-3-(pyrrolidin-1-yl)propan-2-yl)-2-oxo-2-phenylacetamide] |
| ≤ 100 | O=C(CCSc1ccccc1)N[C@H](CN1CCCC1)[C@H](O)c1ccc2c(c1)OCCO2 [Compound 32, N-((1R,2R)-1-(2,3-dihydrobenzo[β][1,4]dioxin-6-yl)-1-hydroxy-3-(pyrrolidin-1-yl)propan-2-yl)-3-(phenylthio)propanamide] |
| 1000 to 3000 | Cc1ccccc1CC(=O)N[C@H](CN1CCCC1)[C@H](O)c1ccc2c(c1)OCCO2 [Compound 35, N-((1R,2R)-1-(2,3-dihydrobenzo [β][1,4]dioxin-6-yl)-1-hydroxy-3-(pyrrolidin-1-yl)propan-2-yl)-2-o-tolylacetamide] |
| 100 to 1000 | Cc1cccc(CC(=O)N[C@H](CN2CCCC2)[C@H](O)c2ccc3c(c2)OCCO3)c1 [Compound 36, N-((1R,2R)-1-(2,3-dihydrobenzo[b][1,4]dioxin-6-yl)-1-hydroxy-3-(pyrrolidin-1-yl)propan-2-yl)-2-m-tolylacetamide] |
| ≤ 100 | O=C(CSCc1ccccc1)N[C@H](CN1CCCC1)[C@H](O)c1ccc2c(c1)OCCO2 [Compound 39, 2-(benzylthio)-N-((1R,2R)-1-(2,3-dihydrobenzo[β][1,4]dioxin-6-yl)-1-hydroxy-3-(pyrrolidin-1-yl)propan-2-yl)acetamide] |
| ≤ 100 | O=C(NCc1ccc(Br)cc1)N[C@H](CN1CCCC1)[C@H](O)c1ccc2c(c1)OCCO2 [Compound 40, 1-(4-bromobenzyl)-3-((1R,2R)-1-(2,3-dihydrobenzo[β][1,4]dioxin-6-yl)-1-hydroxy-3-(pyrrolidin-1-yl)propan-2-yl)urea] |
| ≤ 100 | COc1ccc(CNC(=O)N[C@H](CN2CCCC2)[C@H](O)c2ccc3c(c2)OCCO3)cc1 [Compound 41, 1-((1R,2R)-1-(2,3-dihydrobenzo[β][1,4]dioxin-6-yl)-1-hydroxy-3-(pyrrolidin-1-yl)propan-2-yl)-3-(4-methoxybenzyl)urea] |
| ≤ 100 | Cc1ccc(CNC(=O)N[C@H](CN2CCCC2)[C@H](O)c2ccc3c(c2)OCCO3)cc1 [Compound 42, 1-((1R,2R)-1-(2,3-dihydrobenzo[β][1,4]dioxin-6-yl)-1-hydroxy-3-(pyrrolidin-1-yl)propan-2-yl)-3-(4-methylbenzyl)urea] |
| ≤ 100 | O=C(NCc1ccc(Cl)cc1)N[C@H](CN1CCCC1)[C@H](O)c1ccc2c(c1)OCCO2 [Compound 43, 1-(4-chlorobenzyl)-3-((1R,2R)-1-(2,3-dihydrobenzo[β][1,4]dioxin-6-yl)-1-hydroxy-3-(pyrrolidin-1-yl)propan-2-yl)urea] |
| 100 to 1000 | O=C(Cc1ccc(-c2cccnc2)cc1)N[C@H](CN1CCCC1)[C@H](O)c1ccc2c(c1)OCCO2 [Compound 47, N-((1R,2R)-1-(2,3-dihydrobenzo[β][1,4]dioxin-6-yl)-1-hydroxy-3-(pyrrolidin-1-yl)propan-2-yl)-2-(4-(pyridin-3-yl)phenyl)acetamide] |
| ≤ 100 | O=C(Cc1ccc(-c2ccc(Cl)cc2)cc1)N[C@H](CN1CCCC1)[C@H](O)c1ccc2c(c1)OCCO2 [Compound 48, 2-(4′-chlorobiphenyl-4-yl)-N-((1R, 2R)-1-(2,3-dihydrobenzo[β][1,4]dioxin-6-yl)-1-hydroxy-3-(pyrrolidin-1-yl)propan-2-yl)acetamide] |

Source: US8304447B2, “2-acylaminopropoanol-type glucosylceramide synthase inhibitors” (Genzyme Corporation, priority 2007, dated 2012)
